Data reported in publication PMC6630718, “Discovery of Novel UV-Filters with Favorable Safety Profiles in the 5-Arylideneimidazolidine-2,4-dione Derivatives Group” (Molecules, 2019).

What was measured:
[1] = Photostability in methanol solutions (solar light simulator); format: physicochemical; set-up: λmax pre-irradiation: unit not given beside the values; settings: methanol solution; for % of initial AUC post-irradiation / λmax post-irradiation: 1h irradiation at 500 W/m2
In short: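 Compounds at 25 or 50 µM in methanol, in stoppered quartz cuvettes, were irradiated 1 h at 500 W/m^2 (UV dose 218 kJ/m^2). A solar simulator filtered below 290 nm with an IR block was used. UV absorption spectra before and after irradiation were compared, with UPLC-MS/MS analysis, in duplicate.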

[2] = Ames MPF Penta 2 microplate mutagenicity assay, TA98; format: cell-based; settings: Salmonella typhimurium, read-out: FIB (fold induction over baseline)
Method: (§1) The assay is a liquid microplate modification of the traditional Salmonella test. During the procedure, bacteria are exposed to different concentrations of a test compound for 90 min in a medium containing sufficient histidine (S. typhimurium) or tryptophan (E. coli) to support cell divisions. Then, the cultures are diluted in pH indicator medium lacking histidine or tryptophan and aliquoted into 48 wells of a 384-well plate. Within 48 hours, cells that have undergone reversion to amino acid prototrophy will grow into colonies. Bacterial metabolism reduces pH of the medium, changing the color of that well from purple to yellow (https://www.xenometrix.ch).
(§2) The following strains were used in the study: S. typhimurium TA98, TA100, TA1535, TA1537 and E. coli wp2 uvrA[pKM101]. TA100, TA1535 and E. coli strains are used for the detection of base substitution mutations, whereas TA98 and TA1537 are utilized for the detection of frameshift mutations. S. typhimurium strains have GC base pairs, whereas E. coli strain has AT base pair at their primary reversion site and detect certain oxidizing mutagens, cross-linking agents and hydrazines.
(§3) The test procedure provided by Xenometrix (https://www.xenometrix.ch) and described earlier was followed. Briefly, the bacterial strains were grown overnight in exposure medium and exposed to test compounds 4g and 3b in 24-well plates for 90 min at 37 °C with agitation in the absence (–S9) or presence (+S9) of 4.5% phenobarbital/ β-naphthoflavone-induced rat liver S9. Compounds 4g and 3b were dissolved in DMSO and tested at final concentrations of 0.1, 0.2 and 0.5 mM. After the preincubation, the cultures were diluted in the indicator medium and the contents of each 24-well culture were distributed into 48 wells on a 384-well plate and incubated further for 48 h at 37 °C without agitation. After the exposure, the number of wells containing bacteria was scored by eye for yellow wells. Positive and negative controls were included in the assay, and all doses were done in triplicate.
(§4) Pure DMSO was used as the negative control.
(§5) The fold increase of revertants relative to the solvent control was determined by dividing the mean number of positive wells at each dose by the solvent control at baseline. The solvent control at baseline was defined as the mean number of positive wells in the solvent control plus one standard deviation (SD). When an increase of more than 2-fold relative to the baseline at more than one dose with a dose–response is observed the sample is classified as positive, whereas when no response >2 times the baseline and no dose–response is stated the sample is negative.

[3] = Ames MPF Penta 2 microplate mutagenicity assay, TA1535; settings: Salmonella typhimurium, FIB (fold induction over baseline)
Method: as §1, §2, §3, §4, §5

[4] = Ames MPF Penta 2 microplate mutagenicity assay, TA1537; settings: Salmonella typhimurium, FIB (fold induction over baseline)
Method: as §1, §2, §3, §4, §5

[5] = Ames MPF Penta 2 mutagenicity assay, overall verdict over all strains; format: cell-based, Salmonella typhimurium, Escherichia coli; settings: Salmonella typhimurium, Escherichia coli; 0.1, 0.2 and 0.5 mM, absence and presence of metabolic activation; read-out: fold induction over the baseline, any dose and strain
Text: (§6) Growth, exposure and indicator media, liver S9 fraction, S9-NADP, S9-G-6-P, positive control chemicals as well as Salmonella typhimurium and Escherichia coli strains were included in the kit from Xenometrix. According to the obtained results, there were no doses of test compounds 3b and 4g with more than a 2-fold induction over the baseline, and a dose dependent response was not observed both in the absence and presence of metabolic activation (Table S3). Therefore, compounds 3b and 4g were clearly non-mutagenic in the absence and presence of metabolic activation.

[6] = tested on: Salmonella typhimurium and Escherichia coli strains; assay: as above; format: cell-based; settings: in the absence and presence of metabolic activation
Text: as §6

[7] = S. typhimurium TA98 without S9 (–S9), TA98, –S9, 0.1 mM
[8] = S. typhimurium TA98 without S9 (–S9), TA98, –S9, 0.2 mM
[9] = S. typhimurium TA98 without S9 (–S9), TA98, –S9, 0.5 mM

SMILES | λmax pre-irradiation [1] | % of initial AUC post-irradiation [1] [%] | λmax post-irradiation [1] | fold induction at 90 min, 0.1 mM [2, 7] | fold induction at 90 min, 0.2 mM [2, 8] | fold induction at 90 min, 0.5 mM [2, 9] | fold induction at 90 min, 0.1 mM ([2]; TA98, +S9, 0.1 mM) | fold induction at 90 min, 0.2 mM ([2]; TA98, +S9, 0.2 mM) | fold induction at 90 min, 0.5 mM ([2]; TA98, +S9, 0.5 mM) | fold induction at 90 min, 0.1 mM ([3]; TA1535, +S9, 0.1 mM) | fold induction at 90 min, 0.2 mM ([3]; TA1535, +S9, 0.2 mM) | fold induction at 90 min, 0.5 mM ([3]; TA1535, +S9, 0.5 mM) | fold induction at 90 min, 0.1 mM ([3]; TA1535, –S9, 0.1 mM) | fold induction at 90 min, 0.2 mM ([3]; TA1535, –S9, 0.2 mM) | fold induction at 90 min, 0.5 mM ([3]; TA1535, –S9, 0.5 mM) | fold induction at 90 min, 0.1 mM ([4]; TA1537, +S9, 0.1 mM) | fold induction at 90 min, 0.2 mM ([4]; TA1537, +S9, 0.2 mM) | fold induction at 90 min, 0.5 mM ([4]; TA1537, +S9, 0.5 mM) | fold induction at 90 min, 0.1 mM ([4]; TA1537, –S9, 0.1 mM) | fold induction at 90 min, 0.2 mM ([4]; TA1537, –S9, 0.2 mM) | other results
CCOC(=O)CN1C(=O)/C(=C/c2ccc(OC)cc2)N(CC(=O)OCC)C1=O [Compound 3b, Diethyl 2,2′-((Z)-4-(4-methoxybenzylidene)-2,5-dioxoimidazolidine-1,3-diyl)diacetate] | 318 | 114.39 | 326 | 0.9 | 0.2 | 0.9 | 0.2 | 0.4 | 0.3 | 0.5 | 0.1 | 0.1 | 0.8 | 0.6 | 1.7 | 1.1 | 1.1 | 0.3 | 0.3 | 0.3 | percentage of photoisomer formation ([1]; post-irradiation chromatogram): 28.4%; fold induction at 90 min, 0.5 mM ([4]; TA1537, –S9, 0.5 mM): 0.3; fold induction at 90 min [5]: ≤ 2; mutagenicity (verdict in words) [6]: non-mutagenic
CCOC(=O)CN1C(=O)/C(=C/C=C/c2ccc(OC)cc2)N(CC(=O)OCC)C1=O [Compound 4g, Diethyl 2,2′-((Z)-4-((E)-3-(4-methoxyphenyl)allylidene)-2,5-dioxoimidazolidine-1,3-diyl)diacetate] | 379 | 80.15 | 378 | 0.5 | 0.9 | 0.2 | 0.3 | 0.4 | 0.6 | 0.3 | 0.7 | 0.3 | 0.3 | 1.4 | 0.6 | 1.4 | 1.1 | 0.8 | 0.3 | 1.7 | decrease of AUC after irradiation [1]: 19.9%; fold induction at 90 min, 0.5 mM ([4]; TA1537, –S9, 0.5 mM): 0.5; fold induction at 90 min [5]: ≤ 2; mutagenicity (verdict in words) [6]: non-mutagenic
